Data taken from US20070098649A1, “Method and composition for controlling oral pathogens” (priority 2004, published 2007).
Counter-ions that a name gives are not always drawn. Like-named read-outs stand apart in the source and are kept apart here. Marks after values point to notes of the source that are not given here.

Experiments:
Type in all cases: cell-based
S. gordonii = test: Relative cell surface hydrophobicity (hexanes partition); details: agent alone 5 μg ml^−1
Streptococcus gordonii [1] = test: MIC microdilution assay; details: Streptococcus gordonii, S. gordonii
F. nucleatum [2] = test: Relative cell surface hydrophobicity (hexanes partition); details: agent alone 5 μg ml^−1
A. actinomycetemcomitans = test: as above; details: agent alone 5 μg ml^−1
Fusobacterium nucleatum [3] = test: MIC microdilution assay; details: Fusobacterium nucleatum, F. nucleatum
[4] = test system: Actinobacillus actinomycetemcomitans; test: MIC microdilution assay; details: Aggregatibacter actinomycetemcomitans
Staphylococcus aureus [5] = test: MIC microdilution assay; details: S. aureus, agent alone, read-out: MIC of the antimicrobial agents alone
P. gingivalis = test: Relative cell surface hydrophobicity (hexanes partition); details: agent alone 5 μg ml^−1
Streptococcus mutans [6] = test: MIC microdilution assay; details: Streptococcus mutans, S. mutans
Pseudomonas aeruginosa [7] = test: MIC microdilution assay; details: Pseudomonas aeruginosa; P. aeruginosa; agent alone; read-out: MIC of the antimicrobial agents alone
S. mutans [8] = test: Relative cell surface hydrophobicity (hexanes partition); details: agent alone 5 μg ml^−1
Streptococcus mutans [9] = test: Combination determination (FIC, MIC in combination); details: S. mutans; for MIC of the antimicrobial agents in combination: berberine (B-CG) combined with CHX, Tet or Dox, MIC of the named agent in the combination; for Approximate amount of antibiotic required when combined with berberine relative to when the agent is used alone: fraction of the amount alone
Description: (§1) The alkaloids were tested in pair-wise combinations (fractional inhibitory concentrations, FIC) against all the bacteria to determine whether interactions were antagonistic (FIC>1), additive (0.5<FIC<1), or synergistic (FIC<0.5). The FIC was calculated by the following: (MIC Acombination/MIC Aalone)+(MIC Bcombination/MIC Balone). Where A represents compound 1 and B represents compound 2. […] In the case of A. actinomycetemcomitans and P. aeruginosa, CHX was used at 0.78 to 50 μg ml^−1. Berberine (B-CG and B-S) was used at concentrations 0.9 to 250 μg ml^−1. The antibacterial efficacy of berberine (1.95 to 500 μg ml^−1) was tested in combination against P. aeruginosa with CHX (0.78 to 50 μg ml^−1) (Sigma Chemicals) and the polymyxin antibiotic Col (0.04 to 25 μg ml^−1) (Sigma Chemicals). The plates were incubated for 24 hours.
CHX was diluted from left to right at 10 to 0.08 μg ml^−1 ([…] 1 to 8), berberine was diluted from top to bottom at 250 to 0.09 μg ml^−1 ([…] 1 to 8). Column 9 was the cell control, column 10 was berberine alone (250 to 0.09 μg ml^−1); and column 11 was CHX alone (10 to 0.08 μg ml^−1). Row H was the solvent control (8% DMSO, H1 to H8). Column 12 was the media blank. The dilution assay was designed such that A1 contained the highest concentration of both agents (berberine 250 μg ml^−1 and CHX 10 μg ml^−1). The final concentration of berberine in wells A2 to A8 was […]. The FIC value was calculated from well C6. FIC was calculated by: (MIC Acombination/MIC Aalone)+(MIC Bcombination/MIC Balone).

Escherichia coli [10] = test: MIC microdilution assay; details: E. coli, agent alone, read-out: MIC of the antimicrobial agents alone
oral pathogens = test: Combination determination, statements on the oral pathogens; details: berberine hydrochloride / berberine (B-CG and B-S)
Description: as §1

Porphymonas gingivalis [11] = test: MIC microdilution assay; details: Porphyromonas gingivalis, P. gingivalis
F. nucleatum [12] = test: Viability assessment (bactericidal activity)
Description: (§2) Two representative organisms, S. mutans and F. nucleatum, were used in this study. […] Aliquots of 4 ml of agent, prepared in sterile water, were placed into sterile test tubes and 1 ml of adjusted cells was added. The control consisted of 4 ml of PBS and 1 ml of cells. Samples were removed at 0, 15, 30, and 60 minutes, serial dilutions were performed, and the appropriate dilutions plated out. The plates were incubated at 37° C. under appropriate atmospheric conditions for up to 72 hours. Viable colony counts were determined and compared to nontreated control Percentage kill was calculated using the formula: ([…]×100. Log reduction was also calculated on Log10 transformed data. Effect of Berberine on Cell Surface Hydrophobicity

S. mutans [13] = test: Viability assessment (bactericidal activity); details: CHX (20) μg ml^−1
Description: as §2

test bacteria = test: Relative cell surface hydrophobicity, statements on the test bacteria; details: summary of Table 12
Streptococcus gordonii [14] = test: Combination determination (FIC, MIC in combination); details: S. gordonii; for MIC of the antimicrobial agents in combination: berberine (B-CG) combined with CHX, Tet or Dox, MIC of the named agent in the combination; for Approximate amount of antibiotic required when combined with berberine relative to when the agent is used alone: fraction of the amount alone
Description: as §1

Pseudomonas aeruginosa [15] = test: as above; details: P. aeruginosa
Description: as §1

Staphylococcus aureus [16] = test: as above; details: S. aureus; for MIC of the antimicrobial agents in combination: berberine (B-CG) combined with CHX, Tet or Dox, MIC of the named agent in the combination; for Growth inhibition effect when combined with berberine: berberine hydrochloride / chloride; for Approximate amount of antibiotic required when combined with berberine relative to when the agent is used alone: fraction of the amount alone
Description: as §1

Porphymonas gingivalis [17] = test: as above; details: P. gingivalis; for MIC of the antimicrobial agents in combination: berberine (B-CG) combined with CHX, Tet or Dox, MIC of the named agent in the combination; for Approximate amount of antibiotic required when combined with berberine relative to when the agent is used alone: fraction of the amount alone
Description: as §1

Escherichia coli [18] = test: as above; details: E. coli; for MIC of the antimicrobial agents in combination: berberine (B-CG) combined with CHX, Tet or Dox, MIC of the named agent in the combination; for Growth inhibition effect when combined with berberine: berberine hydrochloride / chloride; for Approximate amount of antibiotic required when combined with berberine relative to when the agent is used alone: fraction of the amount alone
Description: as §1

[19] = test system: Actinobacillus actinomycetemcomitans; test: as above; details: A. actinomycetemcomitans grown under anaerobic conditions; berberine (B-CG) combined with CHX, Tet or Dox; MIC of the named agent in the combination
Description: as §1

Fusobacterium nucleatum [20] = test: as above; details: F. nucleatum; for MIC of the antimicrobial agents in combination: berberine (B-CG) combined with CHX, Tet or Dox, MIC of the named agent in the combination; for Approximate amount of antibiotic required when combined with berberine relative to when the agent is used alone: fraction of the amount alone
Description: as §1

[21] = agent alone, read-out: MIC of the antimicrobial agents alone
[22] = A. actinomycetemcomitans grown under anaerobic conditions, agent alone, read-out: MIC of the antimicrobial agents alone

[H]/N=C(\N/C(=N/[H])NCCCCCCNC(=N)NC(=N)Nc1ccc(Cl)cc1)Nc1ccc(Cl)cc1 [CHX, chlorhexidine gluconate]
Typical reduction scores on relative cell surface hydrophobicity (S. gordonii): −6.3% | MIC (Streptococcus gordonii [1]; [21]): 5 µg/mL | MIC (Streptococcus gordonii [1]; Sg, read-out: MIC of Goldenseal Alkaloids Against Selected Oral Pathogens): 5 µg/mL | Typical reduction scores on relative cell surface hydrophobicity (F. nucleatum [2]): 3.7% | Typical reduction scores on relative cell surface hydrophobicity (A. actinomycetemcomitans): −2.6% | MIC (Fusobacterium nucleatum [3]; [21]): 2.5 µg/mL | MIC (Fusobacterium nucleatum [3]; Fn, read-out: MIC of Goldenseal Alkaloids Against Selected Oral Pathogens): 2.5 µg/mL | MIC [4, 22]: 50 µg/mL | MIC ([4]; Aa, A. actinomycetemcomitans, read-out: MIC of Goldenseal Alkaloids Against Selected Oral Pathogens): 50 µg/mL | MIC (Staphylococcus aureus [5]): 2.5 µg/mL | Typical reduction scores on relative cell surface hydrophobicity (P. gingivalis): −2.7% | MIC (Streptococcus mutans [6]; [21]): 1.25 µg/mL | MIC (Streptococcus mutans [6]; Sm, read-out: MIC of Goldenseal Alkaloids Against Selected Oral Pathogens): 1.25 µg/mL | MIC (Pseudomonas aeruginosa [7]): 6.25 µg/mL | Typical reduction scores on relative cell surface hydrophobicity (S. mutans [8]): 5.1% | MIC of the antimicrobial agents in combination (Streptococcus mutans [9]): 0.04 µg/mL | Approximate amount of antibiotic required when combined with berberine relative to when the agent is used alone (Streptococcus mutans [9]): <½ | MIC alone used for the FIC (Streptococcus mutans [9]; same plate, 48 h): 1.25 µg/mL | MIC in combination used for the FIC (Streptococcus mutans [9]; well C6, berberine (B-G) with CHX, 48 h): 0.3125 µg/mL | MIC (Escherichia coli [10]): 1.25 µg/mL | Growth inhibition effect when combined with berberine (oral pathogens): synergistic | MIC (Porphymonas gingivalis [11]; [21]): 1.25 µg/mL | MIC (Porphymonas gingivalis [11]; Pg, read-out: MIC of Goldenseal Alkaloids Against Selected Oral Pathogens): 2.5 µg/mL | Viability after 60 min exposure (mean Log10 reduction of CFU) (F. nucleatum [12]; CHX (20)): 3.09* Log10 | Viability after 60 min exposure (mean Log10 reduction of CFU) (S. mutans [13]): 1.69 Log10 | Effect on the relative hydrophobicity of the cells (test bacteria): did not appear to affect | MIC of the antimicrobial agents in combination (Streptococcus gordonii [14]): 0.63 µg/mL | Approximate amount of antibiotic required when combined with berberine relative to when the agent is used alone (Streptococcus gordonii [14]): <½ | Interaction when combined with berberine (Pseudomonas aeruginosa [15]): no clear additive or synergistic effect | MIC of the antimicrobial agents in combination (Pseudomonas aeruginosa [15]; berberine combined with CHX or Col, MIC of the named agent in the combination): 3.13** μg ml^−1 | MIC of the antimicrobial agents in combination (Staphylococcus aureus [16]): 0.63 µg/mL | Growth inhibition effect when combined with berberine (Staphylococcus aureus [16]): synergistic | Approximate amount of antibiotic required when combined with berberine relative to when the agent is used alone (Staphylococcus aureus [16]): ½ | MIC of the antimicrobial agents in combination (Porphymonas gingivalis [17]): 0.08 µg/mL | Approximate amount of antibiotic required when combined with berberine relative to when the agent is used alone (Porphymonas gingivalis [17]): <½ | MIC of the antimicrobial agents in combination (Escherichia coli [18]): 0.63 µg/mL | Growth inhibition effect when combined with berberine (Escherichia coli [18]): synergistic | Approximate amount of antibiotic required when combined with berberine relative to when the agent is used alone (Escherichia coli [18]): ½ | MIC of the antimicrobial agents in combination [19]: 50 µg/mL | MIC of the antimicrobial agents in combination (Fusobacterium nucleatum [20]): 0.31 µg/mL | Approximate amount of antibiotic required when combined with berberine relative to when the agent is used alone (Fusobacterium nucleatum [20]): <½

C[C@H]1c2cccc(O)c2C(=O)C2=C(O)[C@]3(O)C(=O)C(C(N)=O)=C(O)[C@@H](N(C)C)[C@@H]3[C@@H](O)[C@@H]21 [Dox, doxycycline HCl]
Typical reduction scores on relative cell surface hydrophobicity (S. gordonii): 7.7% | MIC (Streptococcus gordonii [1]; [21]): 0.31 µg/mL | Typical reduction scores on relative cell surface hydrophobicity (F. nucleatum [2]): −3.5% | Typical reduction scores on relative cell surface hydrophobicity (A. actinomycetemcomitans): −4.1% | MIC (Fusobacterium nucleatum [3]; [21]): 0.04 µg/mL | MIC [4, 22]: 6.25 µg/mL | MIC (Staphylococcus aureus [5]): 1.53 µg/mL | Typical reduction scores on relative cell surface hydrophobicity (P. gingivalis): 1.7% | MIC (Streptococcus mutans [6]; [21]): 0.78 µg/mL | Typical reduction scores on relative cell surface hydrophobicity (S. mutans [8]): 8.1% | MIC of the antimicrobial agents in combination (Streptococcus mutans [9]): 0.20 µg/mL | Approximate amount of antibiotic required when combined with berberine relative to when the agent is used alone (Streptococcus mutans [9]): ¼ | MIC (Escherichia coli [10]): 1.53 µg/mL | Growth inhibition effect when combined with berberine (oral pathogens): synergistic | MIC (Porphymonas gingivalis [11]; [21]): 0.08 µg/mL | Reduction of the concentration required for comparable reduction in viability when used in combination (F. nucleatum [12]; Dox (5 μg ml^−1), berberine (250 μg ml^−1)): one-half | Viability after 60 min exposures (mean Log10 reduction of CFU) (F. nucleatum [12]; Dox (10)): 1.56 Log10 | Effect on the relative hydrophobicity of the cells (test bacteria): did not appear to affect | MIC of the antimicrobial agents in combination (Streptococcus gordonii [14]): 0.08 µg/mL | Approximate amount of antibiotic required when combined with berberine relative to when the agent is used alone (Streptococcus gordonii [14]): <¼ | MIC of the antimicrobial agents in combination (Staphylococcus aureus [16]): 0.39 µg/mL | Growth inhibition effect when combined with berberine (Staphylococcus aureus [16]): synergistic | Approximate amount of antibiotic required when combined with berberine relative to when the agent is used alone (Staphylococcus aureus [16]; listed as Doxycycline (HCL), HCl): ⅕ | Approximate amount of antibiotic required when combined with berberine relative to when the agent is used alone (Staphylococcus aureus [16]; listed as Doxycycline-HCl, HCl): ½ | MIC of the antimicrobial agents in combination (Porphymonas gingivalis [17]): 0.01 µg/mL | Approximate amount of antibiotic required when combined with berberine relative to when the agent is used alone (Porphymonas gingivalis [17]): ¼ | MIC of the antimicrobial agents in combination (Escherichia coli [18]): 0.77 µg/mL | Growth inhibition effect when combined with berberine (Escherichia coli [18]): synergistic | Approximate amount of antibiotic required when combined with berberine relative to when the agent is used alone (Escherichia coli [18]): ½ | MIC of the antimicrobial agents in combination [19]: 6.25 µg/mL | MIC of the antimicrobial agents in combination (Fusobacterium nucleatum [20]): 0.10 µg/mL | Approximate amount of antibiotic required when combined with berberine relative to when the agent is used alone (Fusobacterium nucleatum [20]): ¼
